Source: US20120321896A1, “RASAGILINE MESYLATE HAVING LARGE PARTICLE SIZE AND A PROCESS FOR PREPARATION THEREOF” (priority 2010, published 2012)
Structures can show the parent of a compound that is named as a salt.

Settings: volume distribution; average of three measurements; recrystallised from isopropyl alcohol, gradual cooling in around 15 hours without stirring, no milling
Excerpt: Measurement and characterization of particle size distributions is known in the art. It is possible to compare samples of particulate rasagiline mesylate on the basis of individual points on a cumulative particle size distribution curve. The measurements are represented as d(0.X)-Y (where X and Y are Arabic numerals), each “d” describing an individual point on a cumulative PSD curve. The number “X” represents the percentage (number, volume, or weight) of particles in the population having a nominal size up to and including “Y”. Thus, D90 or d(0.9) of greater than 255 μm is a characteristic of a PSD in which 90% (number, volume, or weight) of the particles in a population have a nominal size of about 255 μm or more (at least some particles having a nominal dimension of 255 μm) and so forth. When PSD is determined by the well-know laser-diffraction method described herein, the D90 measurement depicts a volume average.
Particle Size Distribution (PSD) is determined by laser diffraction in Malvern master Sizer 2000 equipment or its equivalent:
Spread sufficient powder in the dry powder holder of sampler holding unit and close it by the sliding cover. Operate the instrument for particle size analysis.
Report the average of three measurements.

| Particle size data (D90) | SMILES |
| --- | --- |
| 337.1 μm | C#CCN[C@@H]1CCc2ccccc21 [Example-2, Rasagiline mesylate] |
| 292.2 μm | C#CCN[C@@H]1CCc2ccccc21 [Example-1, Rasagiline mesylate] |
